Reference: patent publication US10934224B2, “Production of arginine-rich proteins from wastewater and use as a fertilizer” (Genebiologics, LLC, priority 2016, dated 2021)

Key:
[1] = test system: Arabidopsis thaliana seeds; assay: Arabidopsis thaliana seed germination and growth in liquid culture; type: in vivo; settings: for root growth: 100 μg/ml in water; for optimal level (germination): day 4; for optimal level (biomass): day 5
Method: Approximately 300 Arabidopsis thaliana seeds were soaked in 75% ethanol for one minute, then soaked in 10% bleach, 0.02% TRITON×100 for five minutes, then washed five times with sterile water. The seeds were then resuspended in about 4 ml water, and dispensed into 30 Eppendorf tubes at approximately 100 microliters per tube, for a total of 8-9 seeds per tube. Test conditions included either water, 1× or 0.1×MS medium (Caisson; […] Root length and stem lengths are in mm.

[2] = Inhibition of cobalt binding to cation exchange resin; settings: for effect on binding of cobalt to CM sepharose: 2.5 μM CoCl2, 0.95 μM inhibitor
Method: After sitting for 1 minute the sepharose was washed 2× with water to remove excess cobalt and inhibitor. The cobalt was then stripped from the column material with 50 μl of 50 mM EDTA and this cobalt-containing wash was made basic with 50 μl of 50 mM NaOH. The cobalt-containing wash was then monitored on a DU800 spectroscope at 463 nm wavelength for the data of Table 2 (FIG. 7), and from 350 nm to 650 nm for FIG. 5. The data of FIG. 5 and FIG. 7 were from separate experiments acquired on two different days.

[3] = cited from earlier work
E. coli strain NK5992 = assay: Growth of E. coli arginine auxotroph on arginine or polyarginine; type: cell-based
Method: Cells were grown in triplicate at 37° C. on a 96-well plate with measurement at 600 nm using a Tecan InfiniteM200 pro.

Compound | root growth [1] | optimal level (germination) [1] [µg/mL] | effect on percent germination ([1]; day 4, added to 0.1×MS medium) | optimal level (biomass) [1] [µg/mL] | effect on binding of cobalt to CM sepharose [2] | effect on binding of cobalt to CM sepharose ([2]; listed as Arginine) | competition with cobalt for binding to CM sepharose ([2]; 2.6-fold excess cobalt per arginine monomer, anionic sites limiting) | pKa of guanidinium group [3] | growth of arginine auxotroph on the substance (E. coli strain NK5992; M9 medium, 37° C., 600 nm) | growth relative to arginine monomer (E. coli strain NK5992; on a per-monomer equivalency) | growth ([1]; 0.1× MS, 10 μg/ml, isolated case)
N=C(N)NCCC[C@H](N)C(=O)O [arginine] | not found | 100 | same relative effect | 100 | not by the presence of arginine | enhanced the binding of cobalt | did not compete | approximately 12.4 | – | – | –
polyarginine | large amount of root growth | 100 | – | 100 | inhibited | – | – | – | does grow on polyarginine | grows more poorly | increased growth
